Assay results published in ChEMBL document CHEMBL1909046, “DrugMatrix in vitro pharmacology data”.

Tests used:
[1] = DRUGMATRIX: Interleukin IL-1 radioligand binding (ligand: [125I] interleukin 1beta); format: cell membranes, Membrane; settings: nih3t3; Not Active = under 50% inhibition at 10 µM
Endothelin-1 receptor = target: T1, Endothelin-1 receptor (Homo sapiens, UniProt P25101); format: cell membranes, CHO-K1, Membrane; also: in other assays of this panel Not Active means under 50% inhibition at 10 µM
T1 sequence (P25101 whole entry): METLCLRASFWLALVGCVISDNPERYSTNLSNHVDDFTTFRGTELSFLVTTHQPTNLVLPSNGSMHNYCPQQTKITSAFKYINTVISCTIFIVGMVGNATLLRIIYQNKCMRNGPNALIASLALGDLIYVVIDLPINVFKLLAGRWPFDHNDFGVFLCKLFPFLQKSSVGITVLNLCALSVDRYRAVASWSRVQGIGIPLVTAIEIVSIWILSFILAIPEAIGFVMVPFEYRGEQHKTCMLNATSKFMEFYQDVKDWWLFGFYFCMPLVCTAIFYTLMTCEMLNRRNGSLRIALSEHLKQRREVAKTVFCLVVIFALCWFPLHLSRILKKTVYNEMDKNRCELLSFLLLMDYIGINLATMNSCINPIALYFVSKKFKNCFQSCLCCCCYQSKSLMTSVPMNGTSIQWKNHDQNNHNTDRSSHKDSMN

[2] = target: 5-hydroxytryptamine receptor 6 (Homo sapiens, UniProt P50406); format: cell membranes, HeLa, Membrane; settings: hela; also: in other assays of this panel Not Active means under 50% inhibition at 10 µM
Chain of 5-hydroxytryptamine receptor 6 (P50406 whole entry): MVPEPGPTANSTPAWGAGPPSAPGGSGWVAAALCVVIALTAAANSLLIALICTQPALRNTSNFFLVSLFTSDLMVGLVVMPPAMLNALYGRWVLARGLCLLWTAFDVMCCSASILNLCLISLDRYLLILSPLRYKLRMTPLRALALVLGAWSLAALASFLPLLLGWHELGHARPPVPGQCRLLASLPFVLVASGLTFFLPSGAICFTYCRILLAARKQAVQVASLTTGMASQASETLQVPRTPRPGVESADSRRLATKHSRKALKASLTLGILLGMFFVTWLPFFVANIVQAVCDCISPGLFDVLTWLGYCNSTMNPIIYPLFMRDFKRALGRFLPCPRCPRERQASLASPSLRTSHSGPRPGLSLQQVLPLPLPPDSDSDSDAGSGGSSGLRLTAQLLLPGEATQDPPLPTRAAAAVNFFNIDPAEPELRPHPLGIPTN

[3] = DRUGMATRIX: Sigma2 radioligand binding (ligand: [3H] Ifenprodil); format: cell membranes, Rattus norvegicus, Wistar, Brain, Membrane; settings: Not Active = under 50% inhibition at 10 µM
[4] = target: cGMP-specific 3',5'-cyclic phosphodiesterase (Homo sapiens, UniProt O76074); test: DRUGMATRIX: Phosphodiesterase PDE5 enzyme inhibition (substrate: [3H]cGMP + cGMP); format: tissue-based; settings: platelet; Not Active = under 50% inhibition at 10 µM
Melanocortin receptor 5 = Melanocortin receptor 5 (Homo sapiens, UniProt P33032); format: cell membranes, HEK293, Membrane; settings: hek293; also: in other assays of this panel Not Active means under 50% inhibition at 10 µM
Chain of Melanocortin receptor 5 (P33032 whole entry): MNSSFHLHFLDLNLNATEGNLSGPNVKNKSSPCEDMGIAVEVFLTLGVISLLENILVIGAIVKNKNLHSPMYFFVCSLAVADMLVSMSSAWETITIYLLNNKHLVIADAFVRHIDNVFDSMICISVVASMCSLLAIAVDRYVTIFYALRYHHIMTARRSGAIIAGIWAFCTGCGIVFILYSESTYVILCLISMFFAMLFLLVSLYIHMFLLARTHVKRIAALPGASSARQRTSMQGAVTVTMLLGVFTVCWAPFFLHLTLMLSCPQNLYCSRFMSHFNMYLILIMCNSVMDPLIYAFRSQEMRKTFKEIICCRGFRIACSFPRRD

Molecule: O=P(O)(O)C(O)(Cc1cccnc1)P(=O)(O)O [RISEDRONIC ACID]
- IC50 [1]: Not Active
- Ki [1]: Not Active
- IC50 (Endothelin-1 receptor; cho-k1): Not Active
- IC50 [2]: Not Active
- IC50 [3]: Not Active
- Ki [3]: Not Active
- IC50 [4]: Not Active
- IC50 (Melanocortin receptor 5): Not Active

Molecule: COc1ccc(/C=C/C(=O)Nc2ccccc2C(=O)O)cc1OC
- IC50 [1]: Not Active
- Ki [1]: Not Active
- IC50 (Endothelin-1 receptor; cho-k1): Not Active
- IC50 [2]: Not Active
- IC50 [3]: Not Active
- Ki [3]: Not Active
- IC50 [4]: Not Active
- IC50 (Melanocortin receptor 5): Not Active

Molecule: CCOC(N)=O
- IC50 [1]: Not Active
- Ki [1]: Not Active
- IC50 (Endothelin-1 receptor; cho-k1): Not Active
- IC50 [2]: Not Active
- IC50 [3]: Not Active
- Ki [3]: Not Active
- IC50 [4]: Not Active
- IC50 (Melanocortin receptor 5): Not Active

Molecule: C#CCN(C)[C@H](C)Cc1ccccc1 [SELEGILINE]
- IC50 [1]: Not Active
- Ki [1]: Not Active
- IC50 (Endothelin-1 receptor; cho-k1): Not Active
- IC50 [2]: Not Active
- IC50 [3]: Not Active
- Ki [3]: Not Active
- IC50 [4]: Not Active
- IC50 (Melanocortin receptor 5): Not Active

Molecule: Nc1ccc(S(=O)(=O)Nc2ncccn2)cc1 [SULFADIAZINE]
- IC50 [1]: Not Active
- Ki [1]: Not Active
- IC50 (Endothelin-1 receptor; cho-k1): Not Active
- IC50 [2]: Not Active
- IC50 [3]: Not Active
- Ki [3]: Not Active
- IC50 [4]: Not Active
- IC50 (Melanocortin receptor 5): Not Active

Molecule: C[C@@H]1C[C@H]2[C@@H]3CCC4=CC(=O)C=C[C@]4(C)C3=CC[C@]2(C)[C@H]1C(=O)CN1CCN(c2cc(N3CCCC3)nc(N3CCCC3)n2)CC1 [TIRILAZAD]
- IC50 [1]: Not Active
- Ki [1]: Not Active
- IC50 (Endothelin-1 receptor; cho-k1): Not Active
- IC50 [2]: Not Active
- IC50 [3]: Not Active
- Ki [3]: Not Active
- IC50 [4]: Not Active
- IC50 (Melanocortin receptor 5): Not Active

Molecule: COc1ncnc(NS(=O)(=O)c2ccc(N)cc2)c1OC [SULFADOXINE]
- IC50 [1]: Not Active
- Ki [1]: Not Active
- IC50 (Endothelin-1 receptor; cho-k1): Not Active
- IC50 [2]: Not Active
- IC50 [3]: Not Active
- Ki [3]: Not Active
- IC50 [4]: Not Active
- IC50 (Melanocortin receptor 5): Not Active

Molecule: STANNOUS FLUORIDE
- IC50 [1]: Not Active
- Ki [1]: Not Active
- IC50 (Endothelin-1 receptor; cho-k1): Not Active
- Ki (Endothelin-1 receptor; cho-k1): Not Active
- IC50 [2]: Not Active
- Ki [2]: Not Active
- IC50 [3]: Not Active
- Ki [3]: Not Active
- IC50 [4]: Not Active
- Ki [4]: Not Active
- IC50 (Melanocortin receptor 5): Not Active
- Ki (Melanocortin receptor 5): Not Active

Molecule: CC1=C(CC(=O)O)c2cc(F)ccc2/C1=C\c1ccc(S(C)(=O)=O)cc1 [EXISULIND]
- IC50 [1]: Not Active
- Ki [1]: Not Active
- IC50 (Endothelin-1 receptor; read-out: IC50): 9.85 µM
- Ki (Endothelin-1 receptor; read-out: Ki): 6.06 µM
- IC50 [2]: Not Active
- IC50 [3]: Not Active
- Ki [3]: Not Active
- IC50 [4]: Not Active
- IC50 (Melanocortin receptor 5): Not Active

Molecule: NC[C@H]1O[C@H](O[C@H]2[C@H](O)[C@@H](O[C@H]3O[C@H](CO)[C@@H](O)[C@H](N)[C@H]3O)[C@H](N)C[C@@H]2N)[C@H](N)C[C@@H]1O [TOBRAMYCIN]
- IC50 [1]: Not Active
- Ki [1]: Not Active
- IC50 (Endothelin-1 receptor; cho-k1): Not Active
- IC50 [2]: Not Active
- IC50 [3]: Not Active
- Ki [3]: Not Active
- IC50 [4]: Not Active
- IC50 (Melanocortin receptor 5): Not Active

Molecule: O=C(O)C(Cl)(Cl)Cl [TRICHLOROACETIC ACID]
- IC50 [1]: Not Active
- Ki [1]: Not Active
- IC50 (Endothelin-1 receptor; cho-k1): Not Active
- IC50 [2]: Not Active
- IC50 [3]: Not Active
- Ki [3]: Not Active
- IC50 [4]: Not Active
- IC50 (Melanocortin receptor 5): Not Active
